From patent US20010001713A1, “Composition and method for measuring the foliar uptake of agrochemicals” (priority 1999, published 2001)
Where two headings read alike, the source gives them in different places.

Tests used:
[1] = Glass plate control run of Example 3 (loss of dimethomorph other than by plant uptake); settings: 24 hours after spraying, stored in the dark at room temperature
Source text: The use of a control plate serves the purpose of determining the loss of agrochemical due to reasons other than plant uptake.
(§1) Forum wettable powder(a 25% dimethomorph formulation, Dongbang Agro Co., Ltd., Korea) was dispersed in water and added thereto were one of the penetrant candidate materials listed in Table 4 and Congo Red to obtain an agrochemical solution containing dimethomorph, a penetrant candidate and Congo Red at concentrations of 250 ppm, 1,000 ppm and 200 ppm, respectively. A control containing no penetrant was also prepared.
The agrochemical solution and control thus prepared were sprayed on leaves of each of six cucumber plants having 4 to 5 leaves, as well as on six glass plates(10 cm×10 cm). Immediately after the spraying, the sprayed cucumber leaves from 3 cucumber plants and three glass plates were washed with 12 ml portion of 30% acetonitrile-aqueous solution for 3 minutes to obtain standard wash extracts and controls. […]
The concentrations of dimethomorph and Congo Red in the wash extracts were measured by HPLC(Spectra 200 Programmable Wavelength Detector, acetonitrile-water solvent programming, 42%-80%) . […] The foliar uptake rate of dimethomorph was calculated by comparing the concentrations of dimethomorph and Congo Red in the wash extracts obtained immediately after the spraying and at 24 hours after the spraying.

cucumber leaves [2] = settings: Baktadagi, in vivo, 0 h
Procedure: (§2) (Step 1) Preparation of a solution containing agrochemicals and Congo Red
(§3) Since dimethomorph is not readily absorbed by the plant, 0.1% of stearylamine ethoxylate(SN, moles of ethylene oxide added: 10) was added as an adjuvant to enhance its foliar uptake.
(§4) Cucumber seeds(Baktadagi, Hung Nong Seed Co., Ltd., Korea) were sowed in disposable resin cup pots (id 47 mm×50 mm) at a density of three seeds per pot and cultivated in a greenhouse. Upon the complete development of cotyledons, the cucumber plants were each transplanted to a disposable resin cup pot(id 66 mm×h 66 mm) and cultivated in a greenhouse until the development of 4 to 5 leaves.
(§5) 18 pots of cucumber plants thus prepared were put in a spray booth and sprayed with the agrochemical solution prepared in (Step 1) in an amount of 80 l/ha. Further, 15 glass plates(10 cm×10 cm) were also sprayed with the same agrochemical solution prepared in (Step 1) in an amount of 80 l /ha.
(§6) Immediately after the spraying in (Step 2) , one leaf with its petiole attached was cut off from each of three cucumber plants, put in a test tube containing the appropriate washing solution and washed by agitating the tube with bottom-side up at 60 to 70 rpm for 2 minutes to obtain three wash extracts. Three glass plates were subjected to the same washing procedure in a petri dish(id 15.2 cm) to obtain three control wash extracts.
(§7) The remaining 15 cucumber plants and 12 glass plates were stored in the dark at room temperature, and the same washing procedure as above was repeated at 1 hour, 3 hours, 6 hours, 12 hours and 24 hours after the spraying.
(§8) The concentrations of the agrochemicals in the wash extracts were measured by HPLC(Spectra 200 Programmable Wavelength Detector, acetonitrile-water solvent programming, 42%-80%). The wash extracts obtained immediately after the spraying were used as standard solutions, and Congo Red, as an internal standard.

rice plants [3] = settings: in vivo; for Time-dependent Uptake by Rice(%) (Mean ± S.D.(n = 3)) I.A. / Time-dependent Uptake by Rice(%) (Mean ± S.D.(n = 3)) after 1 hr / Time-dependent Uptake by Rice(%) (Mean ± S.D.(n = 3)) after 3 hrs / Time-dependent Uptake by Rice(%) (Mean ± S.D.(n = 3)) after 6 hrs / Time-dependent Uptake by Rice(%) (Mean ± S.D.(n = 3)) after 12 hrs / Time-dependent Uptake by Rice(%) (Mean ± S.D.(n = 3)) after 24 hrs: Dongjin byeo
cucumber leaves [4] = assay: Foliar uptake of agrochemicals by cucumber plants (Congo Red tracer method); settings: for Time-dependent Uptake by Cucumber(%) (Mean ± S.D.(n = 3)) after 24 hrs: 24 hrs after spraying
Procedure: as §2, §3, §4, §5, §6, §7, §8

rice plants [5] = settings: in vivo
cucumber leaves [6] = assay: Selection of a penetrant for the absorption of dimethomorph by cucumber leaves; settings: 24 hours after spraying, dimethomorph 250 ppm (Forum wettable powder) + penetrant 1,000 ppm
Procedure: as §1
The agrochemical solution and control thus prepared were sprayed on leaves of each of six cucumber plants having 4 to 5 leaves, as well as on six glass plates(10 cm×10 cm). Immediately after the spraying, the sprayed cucumber leaves from 3 cucumber plants and three glass plates were washed with 12 ml portion of 30% acetonitrile-aqueous solution for 3 minutes to obtain standard wash extracts and controls.
The remaining three cucumber pots and three glass plates were stored in the dark at room temperature, and the same procedure was repeated at 24 hours after the spraying.
The concentrations of dimethomorph and Congo Red in the wash extracts were measured by HPLC(Spectra 200 Programmable Wavelength Detector, acetonitrile-water solvent programming, 42%-80%) . The wash extracts obtained immediately after the spraying were used as standard solutions, and Congo Red, as an internal standard. The foliar uptake rate of dimethomorph was calculated by comparing the concentrations of dimethomorph and Congo Red in the wash extracts obtained immediately after the spraying and at 24 hours after the spraying.

COc1ccc(C(=CC(=O)N2CCOCC2)c2ccc(Cl)cc2)cc1OC [Dimethomorph, dimethomorph]
Uptake (%) of dimethomorph [1]: 0.0% | Time-dependent Uptake by Cucumber(%) (Mean ± S.D.(n = 3)) I.A. (cucumber leaves [2]): 0 ± 0.7%

CCOP(=O)(Sc1ccccc1)Sc1ccccc1 [Edifenphos, edifenphos]
Time-dependent Uptake by Rice(%) (Mean ± S.D.(n = 3)) I.A. (rice plants [3]): 0 ± 1.3% | Time-dependent Uptake by Rice(%) (Mean ± S.D.(n = 3)) after 1 hr (rice plants [3]): 1.5 ± 1.1% | Time-dependent Uptake by Rice(%) (Mean ± S.D.(n = 3)) after 3 hrs (rice plants [3]): 4.9 ± 0.7% | Time-dependent Uptake by Rice(%) (Mean ± S.D.(n = 3)) after 6 hrs (rice plants [3]): 7.8 ± 0.4% | Time-dependent Uptake by Rice(%) (Mean ± S.D.(n = 3)) after 12 hrs (rice plants [3]): 14.5 ± 1.3% | Time-dependent Uptake by Rice(%) (Mean ± S.D.(n = 3)) after 24 hrs (rice plants [3]): 29.8 ± 1.9% | absorption by the rice plants (in words) (rice plants [3]): absorbed by the rice plants at a steady rate

OC(c1ccc(Cl)cc1)(c1cncnc1)c1ccccc1Cl (stereo not shown) [Fenarimol, fenarimol]
Time-dependent Uptake by Cucumber(%) (Mean ± S.D.(n = 3)) after 1 hr (cucumber leaves [4]; 1 hr after spraying, stored in the dark, dimethomorph with 0.1% stearylamine ethoxylate): 2.0 ± 8.1% | Time-dependent Uptake by Cucumber(%) (Mean ± S.D.(n = 3)) after 3 hrs (cucumber leaves [4]; 3 hrs after spraying, stored in the dark, dimethomorph with 0.1% stearylamine ethoxylate): 3.2 ± 1.8% | Time-dependent Uptake by Cucumber(%) (Mean ± S.D.(n = 3)) after 6 hrs (cucumber leaves [4]; 6 hrs after spraying, stored in the dark, dimethomorph with 0.1% stearylamine ethoxylate): 5.2 ± 2.5% | Time-dependent Uptake by Cucumber(%) (Mean ± S.D.(n = 3)) after 12 hrs (cucumber leaves [4]; 12 hrs after spraying, stored in the dark, dimethomorph with 0.1% stearylamine ethoxylate): 8.0 ± 4.1% | Time-dependent Uptake by Cucumber(%) (Mean ± S.D.(n = 3)) after 24 hrs (cucumber leaves [4]; stored in the dark, dimethomorph with 0.1% stearylamine ethoxylate): 15.1 ± 4.0% | Time-dependent Uptake by Cucumber(%) (Mean ± S.D.(n = 3)) after 24 hrs (cucumber leaves [4]; stored in the dark, dimethomorph with 0.1% stearylamine ethoxylate, listed as fenarimol): 15.1% | Time-dependent Uptake by Cucumber(%) (Mean ± S.D.(n = 3)) I.A. (cucumber leaves [4]; immediately after the spraying, 80 l/ha, dimethomorph solution with 0.1% stearylamine ethoxylate): 0 ± 3.1%

CC(C)OC(=O)C(C(=O)OC(C)C)=C1SCCS1 [Isoprothiolane, isoprothiolane]
Time-dependent Uptake by Rice(%) (Mean ± S.D.(n = 3)) I.A. (rice plants [3]): 0 ± 1.0% | Time-dependent Uptake by Rice(%) (Mean ± S.D.(n = 3)) after 1 hr (rice plants [3]): 7.9 ± 1.9% | Time-dependent Uptake by Rice(%) (Mean ± S.D.(n = 3)) after 3 hrs (rice plants [3]): 11.6 ± 1.2% | Time-dependent Uptake by Rice(%) (Mean ± S.D.(n = 3)) after 6 hrs (rice plants [3]): 16.1 ± 1.3% | Time-dependent Uptake by Rice(%) (Mean ± S.D.(n = 3)) after 12 hrs (rice plants [3]): 27.8 ± 1.1% | Time-dependent Uptake by Rice(%) (Mean ± S.D.(n = 3)) after 24 hrs (rice plants [3]): 47.1 ± 2.5% | absorption by the rice plants (in words) (rice plants [3]): absorbed by the rice plants at a steady rate

CC12CC1(C)C(=O)N(c1cc(Cl)cc(Cl)c1)C2=O (stereo not shown) [Procymidone, procymidone]
Time-dependent Uptake by Cucumber(%) (Mean ± S.D.(n = 3)) I.A. (cucumber leaves [2]): 0 ± 0.8%

Cc1cccc2sc3nncn3c12 [Tricyclazole, tricyclazole]
Time-dependent Uptake by Rice(%) (Mean ± S.D.(n = 3)) I.A. (rice plants [3]): 0 ± 1.1% | Time-dependent Uptake by Rice(%) (Mean ± S.D.(n = 3)) after 1 hr (rice plants [3]): 1.4 ± 0.7% | Time-dependent Uptake by Rice(%) (Mean ± S.D.(n = 3)) after 3 hrs (rice plants [3]): 1.1 ± 1.5% | Time-dependent Uptake by Rice(%) (Mean ± S.D.(n = 3)) after 6 hrs (rice plants [3]): 2.0 ± 1.4% | Time-dependent Uptake by Rice(%) (Mean ± S.D.(n = 3)) after 12 hrs (rice plants [3]): 4.1 ± 0.5% | Time-dependent Uptake by Rice(%) (Mean ± S.D.(n = 3)) after 24 hrs (rice plants [3]): 11.0 ± 0.9% | absorption by the rice plants (in words) (rice plants [3]): absorbed by the rice plants at a steady rate | Recovery (%) of tricyclazole (rice plants [5]; rice): 82.4% | Uptake (%) of tricyclazole (rice plants [5]; rice): 17.6%

CCCCC(CC)COC(=O)CC(C(=O)OCC(CC)CCCC)S(=O)(=O)[O-].[Na+] (stereo not shown) [sodium dioctylsulfosuccinate]
Recovery (%) of tricyclazole (rice plants [5]): 79.1% | Uptake (%) of tricyclazole (rice plants [5]): 20.9% | Recovery (%) of dimethomorph (cucumber leaves [6]): 94.5% | Uptake (%) of dimethomorph (cucumber leaves [6]): 5.5%

castor oil ethoxylate [castor oil ethoxylate(17)]
Recovery (%) of tricyclazole (rice plants [5]): 63.7% | Uptake (%) of tricyclazole (rice plants [5]): 36.3%

laurylamine ethoxylate [laurylamine ethoxylate(7)]
Recovery (%) of tricyclazole (rice plants [5]): 35.4% | Uptake (%) of tricyclazole (rice plants [5]): 64.6% | Recovery (%) of dimethomorph (cucumber leaves [6]): 96.3% | Uptake (%) of dimethomorph (cucumber leaves [6]): 3.7%

nonylphenol ethoxylate [nonylphenol ethoxylate(10)]
Recovery (%) of tricyclazole (rice plants [5]): 80.6% | Uptake (%) of tricyclazole (rice plants [5]): 19.4% | Recovery (%) of dimethomorph (cucumber leaves [6]): 99.8% | Uptake (%) of dimethomorph (cucumber leaves [6]): 0.2%

stearylamine ethoxylate [stearylamine ethoxylate(10)]
Recovery (%) of tricyclazole (rice plants [5]): 46.1% | Uptake (%) of tricyclazole (rice plants [5]): 53.9% | Recovery (%) of dimethomorph (cucumber leaves [6]): 85.5% | Uptake (%) of dimethomorph (cucumber leaves [6]): 14.5%

tridecyl alcohol ethoxylate [tridecyl alcohol ethoxylate(5)]
Recovery (%) of tricyclazole (rice plants [5]): 75.6% | Uptake (%) of tricyclazole (rice plants [5]): 24.4% | Recovery (%) of dimethomorph (cucumber leaves [6]): 98.0% | Uptake (%) of dimethomorph (cucumber leaves [6]): 2.0%
